Source: patent US11771645B2, “Transdermally absorbable base material containing lipid peptide compound” (KYUSHU UNIVERSITY, priority 2015, dated 2023)

Test system: Yucatan Micro Pig (YMP) skin
Assay: Skin permeability test, fluorescently-labeled insulin in skin extract and receiver solution, vertical Franz type diffusion cell (Examples 8, 12, 14, 18)
Format: in vitro ADME
Procedure: Yucatan Micro Pig (YMP) skin (by Charles River Laboratories Japan, Inc.) stored at −80° C. was thawed at room temperature (roughly 25° C.), and was then subjected to the fat removal (to have a skin thickness of roughly 2 mm). Thus, the YMP skin of roughly 2 cm square was prepared.
To a receiver phase of the vertical Franz type diffusion cell (effective area: 0.785 cm^2), 5.0 mL of phosphate buffered saline (PBS of pH 7.4, stirred at 500 rpm) was added, and the above-described YMP skin (temperature of PBS on skin surface: 32.5° C.) was set. […]
The skin was taken out after 24 hours, and washed with the extractant [solution of PBS, acetonitrile, and methanol mixed at 2:1:1 (v/v/v)]. […] The extracted solution thus obtained was filtered using a PTFE filter (0.20 μm), and then, the quantity of the fluorescently-labeled insulin in the solution was determined using the fluorescence spectrometer LS-55 (manufactured by PerkinElmer, Inc.) (each calculated as the average value of three tests). The fluorescence spectrometer measurement was made at an excitation wavelength of 495 nm and a measurement wavelength of 521 nm. […]
The skin was taken out after 24 hours, and washed with the extractant [solution of PBS, acetonitrile, and methanol mixed at 2:1:1 (v/v/v)]. […] The fluorescence spectrometer measurement was made at an excitation wavelength of 495 nm and a measurement wavelength of 521 nm. […]

polyoxyethylene lauryl ether
transdermal absorption enhancing effect of insulin: no transdermal absorption enhancing effect
